Data published in patent US20250154129A1, “CRYSTALLINE PHARMACEUTICALLY ACCEPTABLE SALT AND POLYMORPHIC FORM OF THE […] CYCLASE INHIBITOR VAROGLUTAMSTAT” (VIVORYON THERAPEUTICS N.V., priority 2023, published 2025).
Blank lines part the entries; values can stand above or below the molecule they belong to.

Columns and labels:
CCL2/CCR2 axis = settings: three-week repeated administration, 30 and 100 mg/kg, twice daily; dose-dependent; cited from earlier work
[1] = Solubility in water of salt forms from 1 g scale salt screening in isopropanol; assay type: physicochemical; settings: 20° C.
Text: (§1) For such salts with a clear stoichiometry, their preparation was then repeated on 1 g scale (free base) in isopropanol with the acid slowly being added followed by seeding (seeds as obtained from the screening experiment). The solids were then further characterized with regard to: • Handling of crystals, • Crystal habit (microscopy, macroscopic): presence and shape of crystals, • Crystallinity (quality of crystals, XRPD), • Thermal analysis (DSC and TGA), • Hygroscopicity (DVS), and • Solubility in water.

[2] = Hygroscopicity (DVS) of salt forms from Example 3.2; assay type: physicochemical; settings: 1 g scale, isopropanol
Text: as §1
VTI-SA by TA Instruments with Isotherm Software for data acquisition and handling, glass sample holder and de-ionised water for vapour production.

[3] = Crystallinity by XRPD of salt forms from Example 3.2; assay type: physicochemical; settings: 1 g scale, isopropanol
Text: as §1
• Angle: 2θ=2° to 2θ=40° • Sampling width 0.02 • Measurement time: 75 minutes.
Solid was positioned on sample holder, prepared with grease and flattened with a disc of glass.

[4] = test system: mice doubly transgenic for human APP and human glutaminyl cyclase; settings: chronic oral dosing; cited from earlier work
[5] = Solubility screening of the Varoglutamstat free base (HPLC of mother liquor); assay type: physicochemical
Description: 75 mg of solid were transferred into a glass vial, a magnetic stir bar and 1.5 ml of solvent were added. […] The vials were then cooled to 20° C. and stirred for another 30 min. When completely dissolved, additional solid material was added, and the vial equilibrated for at least 3 hours at 20° C.
The mother liquor was sampled and analyzed for content via HPLC versus an external standard solution (1-point calibration).
• Column: PHENOMENEX LUNA C18, 50×4.6 mm, 3 μm, • Mobile phase A: 0.05% TFA in water, • Mobile phase B: 0.05% TFA in acetonitrile. • Gradient: 10% to 90% B in 10 min, 2 min hold, re-equilibrate to initial gradient composition. • Flow: 1.0 mL/min. • Detection: UV at 225 nm.

[6] = pKa of Varoglutamstat (weak base); assay type: physicochemical
[7] = Solubility screen of the hydrochloride salt in single solvents (HPLC of mother liquor); assay type: physicochemical; settings: 20° C.
Description: As a first step, a solubility screen of the hydrochloride salt (obtained from the 1 g scale experiments in Example 3.2) was performed in single solvents as listed in Table 5. This was done in order to identify the most suitable solvents for the process development.
The resulting suspensions were equilibrated for at least 4 hours and the mother liquors sampled for solubility determination by HPLC (see “Description of analytical procedures used in the Examples of the invention” for method details).
• Column: ZORBAX BONUS RP 150 mm×4.6 mm; 3.5 um • Eluent A: 0.05% HCOOH in H2O • Eluent B: 0.05% HCOOH in ACN • Flow 1.00 ml/min • Gradient: 2 min 100% Eluent A, linear increase of Eluent B from 2 to 20 min from 0 to 100% • Detection: UV at 225 nm

Aβ soluble protofibrils = settings: adult patients with early Alzheimer disease; cited from earlier work
[8] = DMSO, solution obtained: solubility identical or higher than 50 mg/mL
[9] = MeOH, solution obtained: solubility identical or higher than 50 mg/mL
[10] = Water, solution obtained: solubility identical or higher than 50 mg/mL

Molecule: CCCOc1ccc(C2C(=O)NC(=O)N2c2ccc3[nH]cnc3c2)cc1 (stereo not drawn) [PQ529]
serum and urine CCL2 (CCL2/CCR2 axis): significantly reduced
urinary protein excretion (CCL2/CCR2 axis): significantly reduced

Molecule: CCCOc1ccc([C@H]2CNC(=O)N2c2ccc3[nH]cnc3c2)cc1 [TosOH]
Solubility in water ([1]; procedure of Example 4.1): 3600 µM

Molecule: CCCOc1ccc([C@H]2CNC(=O)N2c2ccc3[nH]cnc3c2)cc1 [Varoglutamstat free base, (S)-1-(1H-benzo[d]imidazol-5-yl)-5-(4-propoxyphenyl)imidazolidin-2-one]
Solubility in water ([1]; procedure of Example 4.1, listed as free base): 890 µM
brain pyroglutamate Aβ [4]: reduce
recall in the Morris water maze test of spatial memory [4]: improve
solubility in organic solvents ([5]; methyl-isobutyl-ketone, dichloro-methane, 20° C.): good
solubility ([5]; organic solvent or mixture, thermodynamic from solid, acetone, tetrahydrofuran, methyl-tetrahydrofuran, methyl-ethylketone, 2-pentanone, acetonitrile, dimethylsulfoxide, methanol, ethanol, isopropanol, n-propanol, n-butanol, 20° C., read-out: excellent solubility in organic solvents): ≥ 30 mg/mL
solubility in organic solvents ([5]; tert-butyl-methyl-ketone, ethyl-acetate, isopropyl-acetate, heptane, toluene, 20° C.): poorly soluble or insoluble
solubility at 30 min ([5]; thermodynamic from solid, water, equilibrated at 20° C.): < 1 mg/mL
Solubility in water ([5]; water, forms a sticky/oily suspension): almost insoluble
pKa [6]: 4.55

B1: Leqembi: humanized IgG1 monoclonal antibody which binds to Aβ soluble protofibrils with high affinity (antibody, chains of the INN, looked up, V domains shown)
VH: EVQLVESGGGLVQPGGSLRLSCSASGFTFSSFGMHWVRQAPGKGLEWVAYISSGSSTIYYGDTVKGRFTISRDNAKNSLFLQMSSLRAEDTAVYYCAREGGYYYGRSYYTMDYWGQGTTVTVSS
VL: DVVMTQSPLSLPVTPGAPASISCRSSQSIVHSNGNTYLEWYLQKPGQSPKLLIYKVSNRFSGVPDRFSGSGSGTDFTLRISRVEAEDVGIYYCFQGSHVPPTFGPGTKLEIK
brain amyloid (Aβ soluble protofibrils): reduce
cognitive decline (Aβ soluble protofibrils): modestly slow

The next lines start with the values.

hygroscopicity [2]: high
crystallinity (by XRPD) [3]: low
Molecule: Oxalate

ML free base ([7]; ACN): 0.1 mg/mL
calculated HCl ([7]; ACN): 0.1 mg/mL
ML free base ([7]; Acetone): 0.1 mg/mL
calculated HCl ([7]; Acetone): 0.1 mg/mL
ML free base [7, 8]: 51.7 mg/mL
calculated HCl [7, 8]: 57.3 mg/mL
ML free base ([7]; EtOAc): 0.0 mg/mL
calculated HCl ([7]; EtOAc): 0.0 mg/mL
ML free base ([7]; EtOH): 41.3 mg/mL
calculated HCl ([7]; EtOH): 45.8 mg/mL
ML free base ([7]; Heptane): 0.0 mg/mL
calculated HCl ([7]; Heptane): 0.0 mg/mL
ML free base ([7]; IPA): 3.6 mg/mL
calculated HCl ([7]; IPA): 4.0 mg/mL
ML free base ([7]; IPrOAc): 0.0 mg/mL
calculated HCl ([7]; IPrOAc): 0.0 mg/mL
ML free base ([7]; MEK): 0.0 mg/mL
calculated HCl ([7]; MEK): 0.0 mg/mL
ML free base ([7]; MIBK): 0.1 mg/mL
calculated HCl ([7]; MIBK): 0.1 mg/mL
ML free base ([7]; Me-THF): 0.0 mg/mL
calculated HCl ([7]; Me-THF): 0.0 mg/mL
ML free base [7, 9]: 47.5 mg/mL
calculated HCl [7, 9]: 52.6 mg/mL
ML free base ([7]; TBME): 0.0 mg/mL
calculated HCl ([7]; TBME): 0.0 mg/mL
ML free base ([7]; THF): 0.0 mg/mL
calculated HCl ([7]; THF): 0.0 mg/mL
ML free base ([7]; Toluene): 0.1 mg/mL
calculated HCl ([7]; Toluene): 0.1 mg/mL
ML free base [7, 10]: 52.0 mg/mL
calculated HCl [7, 10]: 57.6 mg/mL
ML free base ([7]; nBuOH): 3.9 mg/mL
calculated HCl ([7]; nBuOH): 4.4 mg/mL
ML free base ([7]; nPrOH): 10.4 mg/mL
calculated HCl ([7]; nPrOH): 11.5 mg/mL
Molecule: CCCOc1ccc([C@H]2CNC(=O)N2c2ccc3[nH]cnc3c2)cc1.Cl [Varoglutamstat Hydrochloride, (S)-1-(1H-benzo[d]imidazol-5-yl)-5-(4-propoxyphenyl) imidazolidin-2-one hydrochloride]

hygroscopicity [2]: high
crystallinity (by XRPD) [3]: mediocre
Molecule: Fumarate
